PMC2360244 (British Journal of Cancer, 2007)

Legend:
[1] = test system: A2780 ovarian carcinoma xenograft; assay: A2780 ovarian xenograft, tumour growth; assay type: in vivo, mice; conditions: median tumour size at end of study
Procedure: (§1) All mice used in the in vivo studies were athymic male NMRI nu/nu mice purchased from Janvier (France) and were treated according to the ethical guidelines prescribed by UKCCCR. A2780 ovarian, HCT116 colon and H460 lung carcinoma cells were injected s.c. (10^7 cells per 200 μl) into the inguinal region of Nude mice. […] Tumour size was determined using caliper measurement and tumour volume was determined by using the formula: TV=(a^2 × b)/2 (in which a represents the width and b the length).
Mice were treated orally once daily (q.d.) between day 4 and 28 (A2780) or between day 4 and 32 (H460 and HCT116). (A) A2780 ovarian tumours were measured at least twice a week throughout the study, and results are represented as the median tumour size, expressed in mm^3, of each individual group (n=10). (B) Mice were treated orally q.d. at the indicated doses. Results are represented as the treated/control values (%) of the median tumour size (n=10) at the end of the study.

[2] = test system: H3 acetylation and p21waf1,cip1 in A2780 ovarian carcinoma cells; assay: Western blot of acetylated H3 and p21waf1,cip1 in A2780 cells (class I HDAC readout); assay type: cell-based, human
Procedure: Human A2780 ovarian carcinoma cells were incubated with the indicated concentrations of HDAC inhibitors. Total cell lysates were prepared and analysed by SDS–PAGE. […] To control for equal loading, blots were stripped and re-probed with mouse monoclonal antiactin IgM (Ab-1, Oncogene Research products, Merck, Darmstadt, Germany). […] Protein–antibody complexes were then visualised by chemiluminescence (Pierce Chemical Co., Perbioscience, Erembodegem, Belgium) or fluorescence (Odyssey) according to manufacturer's instructions.
Total cell lysates were prepared and analysed by SDS–PAGE. Levels of acetylated H3 and tubulin, and of total levels of H3 and tubulin and of p21^waf1, cip1 and Hsp70 and c-raf protein, were detected using rabbit polyclonal and mouse monoclonal antibodies, followed by ECL detection as indicated in the Methods section. To control for equal loading, blots were stripped and re-probed with antibodies against actin and the nuclear protein Lamin B1. A representative experiment out of three is shown.

[3] = test system: HDAC isotypes in partially purified extract from rat liver (MAL, unselective); conditions: read-out: Liver extract MAL unselective IC50, substrate MAL
Procedure: After centrifugation, the cleared extract was used for immunoprecipitation of HDAC1. […] Incubation was performed for 45 min at 37°C (immunoprecipitates) or 30 min at room temperature (HeLa nuclear extract). Before addition of substrate, HDAC inhibitors were added at increasing concentrations and preincubated for 10 min at room temperature. After incubation, the reaction was quenched with 35 μl stop buffer (1 M HCl and 0.4 M acetic acid). Released [^3H]acetic acid was extracted with 800 μl ethyl acetate and quantified by scintillation counting. Equal amounts of HDAC1 were immunoprecipitated as indicated by western blot analysis. Histone deacetylase 1 activity results are presented as mean±s.d. of three independent experiments on a single lysate. […] Finally, we measured the activities of different HDAC isotypes present in partially purified extract from rat liver using the fluorescent HDAC substrates MAL (unselective), B61 (selective for HDAC1, and to some extent also converted by HDAC3) and B12 (selective for HDAC6).

[4] = Tolerability of once-daily oral dosing for 28 days; assay type: in vivo; conditions: up to 40 mpk p.o., immunodeficient mice
Procedure: as §1

[5] = test system: A2780 ovarian carcinoma cells; assay: Cell-cycle analysis, propidium iodide staining and FACS; assay type: cell-based, human
Procedure: Human A2780 ovarian carcinoma cells were seeded at 2 × 10^6 cells per 75-cm^2 flask and, after 24 h, incubated with the indicated concentration of test compound. To analyse cell-cycle distribution, sub-confluent cells were collected, centrifuged and washed with PBS. The cell pellets were re-suspended in citrate buffer and nuclei were stained with propidium iodide (Sigma-Aldrich, Bornem, Belgium) as described previously ([Vindelov et al, 1983]). Analysis was carried out using a BD-LSR flow cytometer (BD Biosciences, Erembodegem, Belgium) equipped with an argon laser (488 nm excitation). Cell-cycle profiles were analysed using WinList 3D version 4.0 and areas under the curve were calculated using ModFit LT version 3.1 (Verity Software House Inc.).
DNA content of nuclei was evaluated using propidium iodide staining followed by FACS analysis, and the number of cells in sub-G1, G1, S and G2M phase was calculated as a percentage of control. Results are expressed as % of total cells and a representative experiment out of three is shown.

With `O=C(NO)c1cnc(N2CCN(S(=O)(=O)c3ccc4ccccc4c3)CC2)nc1` [R306465] the “T/C values (%) A2780 ovarian” value ([1]; 10 mpk p.o. q.d. day 4 to 28) was 47%, the “T/C values (%) A2780 ovarian” value ([1]; 20 mpk p.o. q.d. day 4 to 28) was 13% and the “T/C values (%) A2780 ovarian” value ([1]; 40 mpk p.o. q.d. day 4 to 28) was 24%. The “concentration at which H3 acetylation is induced” value ([2]; 24 h, western blot) was 100 nM, the “concentration at which p21waf1,cip1 is induced” value ([2]; 24 h, western blot) was 100 nM and the “cellular potency for HDAC1 vs HDAC6 (higher for HDAC1)” value ([2]; H3 acetylation vs tubulin acetylation) was 10 fold. For the same compound, the IC50 [3] was 0.886 ± 0.085 µM, the tolerability [4] was “well-tolerated” and the “G0–G1, % of total cells” value ([5]; 0.1 μM, 24 h) was 44.6%. For the same compound, the “G2–M, % of total cells” value ([5]; 0.1 μM, 24 h) was 28.3%, the “S-phase, % of total cells” value ([5]; 0.1 μM, 24 h) was 27.1% and the “G0–G1, % of total cells” value ([5]; 0.1 μM, 48 h) was 64.4%. The “G2–M, % of total cells” value ([5]; 0.1 μM, 48 h) was 17.0%, the “S-phase, % of total cells” value ([5]; 0.1 μM, 48 h) was 18.6% and the “G0–G1, % of total cells” value ([5]; 0.3 μM, 24 h) was 76.5%. The “G2–M, % of total cells” value ([5]; 0.3 μM, 24 h) was 7.8%, the “S-phase, % of total cells” value ([5]; 0.3 μM, 24 h) was 15.7% and the “G0–G1, % of total cells” value ([5]; 0.3 μM, 48 h) was 67.2%. The “G2–M, % of total cells” value ([5]; 0.3 μM, 48 h) was 14.9%, the “S-phase, % of total cells” value ([5]; 0.3 μM, 48 h) was 17.9% and the “G0–G1, % of total cells” value ([5]; 1 μM, 24 h) was 55.4%. The “G2–M, % of total cells” value ([5]; 1 μM, 24 h) was 39.2%, the “S-phase, % of total cells” value ([5]; 1 μM, 24 h) was 5.4% and the “G0–G1, % of total cells” value ([5]; 1 μM, 48 h) was 45.5%. For the same compound, the “G2–M, % of total cells” value ([5]; 1 μM, 48 h) was 44.5%, the “S-phase, % of total cells” value ([5]; 1 μM, 48 h) was 10.0% and the “concentration at which decrease in S phase with parallel increase in G1 phase was observed” value ([5]; 24 h incubation) was 300 nM. For the same compound, the “concentration at which increase in the sub-G1 fraction was observed” value ([5]; 24 h incubation) was 1 µM and the “concentration from which increase in sub-G1 phase was observed” value ([5]; 48 h incubation) was at least 100 nM.
